Numbering of substitutions follows the chain as printed.

For series [1], the system named is U2OS cells. Put plainly: cells. To be noted: 24 h. The format is cell-based, human. As for the experimental part: (§1) page 47: 1.5. Biological experimental 1.5.1. […] The experiment was performed in duplicates. 1.5.2. […] 1.5.3. […] 46
The test system of a further series is HCT116 cells. Put plainly: cells. The format is cell-based, human. To be noted: 24 h. As for the experimental part: as §1
The subject of series [2] is CK2β localisation in U2OS cells. Nature of the series: Immunofluorescence imaging of subcellular localisation of CK2β. To be noted: 30 μM, 15 minute incubation, CK2β antibody. The class given is cell-based, human. The protocol:
(§2) CellCarrier Ultra) in 40 μL of growth medium.
(§3) 1.5.5. Co-localisation experiments […]
(§4) confocal microscope with a 40X water immersion objective. Images were acquired with excitation at […]
(§5) green, red and blue channel respectively.
(§6) The following primary antibodies were used:
(§7) Antibody Organelle stained Supplier and catalogue Working concentration […]
(§8) Calnexin Endoplasmic reticulum Invitrogen, PA5-34665 1:750
(§9) Hoechst nuclei stain was used to a working concentration of 1:5000. […]
(§10) concentration 4%). Cells were fixed for 15 minutes, washed with PBS (3x) and blocked with 3% BSA + 0.1 % […] for 5 minutes. The blocking solution was then removed and 40 μL of the primary antibodies in BSA added. The plate was stored in the dark, at 4 °C overnight. The primary antibodies were washed with PBS (3x) and 40 μL of the secondary antibodies and Hoechst nuclei stain in BSA added. The plate was kept at 4 °C for 1 hour, washed with PBS (3x) and imaged as described above. Images were analysed using Fiji (ImageJ) software.

Series [3] addresses T1, CK2α (Homo sapiens, UniProt P68400, K74A/K75A/K76A/R21S).
T1 construct: CK2α_KA (residues 2 -329) contained four; His6 (N, cleaved yes); made in house; host or cells: Escherichia coli BL21(DE3)
T1 sequence (P68400 2-329 R21S/K74A/K75A/K76A): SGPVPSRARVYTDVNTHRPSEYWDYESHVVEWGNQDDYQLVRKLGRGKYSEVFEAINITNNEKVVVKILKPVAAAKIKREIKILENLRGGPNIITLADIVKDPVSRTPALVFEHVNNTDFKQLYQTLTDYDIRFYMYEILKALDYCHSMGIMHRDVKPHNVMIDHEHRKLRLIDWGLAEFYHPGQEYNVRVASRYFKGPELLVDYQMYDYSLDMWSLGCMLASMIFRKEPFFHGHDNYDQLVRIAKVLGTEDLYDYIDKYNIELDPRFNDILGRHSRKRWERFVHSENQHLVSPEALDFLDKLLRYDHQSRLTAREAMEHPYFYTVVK
Put plainly: Isothermal titration calorimetry, direct binding to CK2α. To be noted: for Kd: ITC, 25°C, CK2α_KA, Tris 200 mM, NaCl 300 mM, 10% DMSO, single site binding model. As for the experimental part:
lysed using a high-pressure homogeniser.
The soluble supernatant was applied on a […]
mM NaCl, 1mM DTT, 1mM EDTA, pH 8.5). 100µL of the precision protease was loaded onto the […]
Pure protein was concentrated to 15 mg/mL and flash frozen in liquid N2. […]
1.4.3. Isothermal Calorimetry Titration
1.4.3.1. Direct binding assay
DMSO) and concentrated to 20-50 μM. Compounds in 100× stock solutions were diluted into the […]
Control titrations were performed, and the […]
In general terms: In ITC the heat of successive injections is recorded.

Series [4] concerns U2OS cells. Put plainly: Cell viability / apoptosis assay (CytoTox-Glo), 4 hour treatment. The following applies: after 4 hours. The format is cell-based, human.
A further series has as its system U2OS and HCT116 cells. To be noted: proliferation, growth rate, viability (Fig. S5-S7).
A further series deals with T2, CK2α/β holoenzyme (Homo sapiens, UniProt P68400).
T2 construct: CK2α_WT was used (residues 2-329); His6 (N, cleaved yes); made in house; host or cells: Escherichia coli BL21(DE3)
T2 sequence (P68400 2-329): T1 sequence (P68400 2-329 R21S/K74A/K75A/K76A) with S20R, A73K, A74K, A75K
Nature of the series: ADP-Glo kinase assay, CK2β-dependent substrate eIF2β, pre-formed CK2α/β complex. The format is biochemical. The following applies: 50 nM CK2α_WT + 50 nM CK2β_WT pre-formed, 25 μM ATP, 50 μM eIF2β peptide, 25 °C, 120 min, at least three independent repeats, read-out: IC50, inhibition of phosphorylation of the CK2β-dependent substrate eIF2β. As for the experimental part:
(§11) We then wanted to investigate whether the peptides would be able to inhibit the binding of the β subunit to the α subunit. To this end, the binding affinity of the regulatory β subunit for the catalytic domain was determined via ITC (Kd 9 nM). This was then repeated in the presence of 100 μM P1-C4 and P2-C4 (ESI, Table S4 ^†). […] As one of the key roles of CK2β is to recruit substrates to the kinase, the effect of PPI inhibition on substrate phosphorylation was studied using CK2β dependent and independent substrates. […] It should be noted that the kinase assay was performed using the pre-formed CK2α/β complex as the ability of CK2α to phosphorylate eIF2β requires the presence of the CK2β subunit.
(§12) The kinase assays were performed using the ADP-Glo™ kinase assay kit (Promega). 50 nM CK2α_WT was incubated in the kinase reaction buffer (40 mM Tris pH 7.5, 200 mM NaCl, 20 mM MgCl2, 0.1 mg/mL BSA, 25 μM ATP, 50 μM substrate peptide (RRRADDSDDDD, Enzo Life Sciences […]
(§13) Inc. or eIF2β peptide […]), 5% (v/v) DMSO) in the presence of different concentrations of the inhibitor at 25 °C for 120 min. […] The luminescence was recorded using a PHERAstar FS plate reader (BMG LABTECH) with an integration time of 1 sec.
(§14) Percentage inhibition was calculated relative to a DMSO control after subtraction of the measurement for basal ATPase activity in the absence of substrate. […]
On the technique in general: ADP-Glo turns the ADP formed in a reaction into a luminescent signal.

The next series addresses T3, CK2α/CK2β-RAD complex (Homo sapiens, UniProt P68400, K74A/K75A/K76A/R21S).
T3 construct: CK2α_KA (residues 2 -329) contained four; His6 (N, cleaved yes); made in house; host or cells: Escherichia coli BL21(DE3)
T3 sequence (P68400 2-329 R21S/K74A/K75A/K76A): T1 sequence (P68400 2-329 R21S/K74A/K75A/K76A)
Nature of the series: Competition Bio-Layer Interferometry (BLI): formation of the CK2α/CK2β-RAD complex. The format is binding. The following applies: biotin-labelled CK2β-RAD 50 nM on streptavidin sensors, CK2α 50 nM, 20mM TRIS pH 8.0, 350mM NaCl, 0.5% Tween, average of 4 repeats, SEM, read-out: IC50, prevention of formation of the CK2α/CK2β-RAD complex. The protocol: Octet RED96 (ForteBio) instrument was used for BLI analysis of biotin-labelled CK2β-RAD/CAM7117 interactions. Experiments were performed using SA-Streptavidin biosensors (ForteBio), which were regenerated with 10mM glycine, pH 1.7. 20mM TRIS pH 8.0, 350mM NaCl, 0.5% Tween was used as the assay buffer. For binding assays pre-wet sensors were loaded with biotin labelled CK2β-RAD protein at 50 nM in assay buffer. CK2α K74A was prepared at 50 nM in assay buffer and dilution series (from 0 to 10 μM) of CAM7117 were prepared in the assay buffer. The following experimental setup was used for each measurement cycle: regeneration 3× 5s, baseline 120s, sample loading (CK2β-RAD) 200s, baseline 120s (assay buffer), control loading 200s (RAD), baseline 150s (assay buffer), ligand binding (association) 400s (CK2α K74A and CAM7117) and ligand dissociation 600s (assay buffer), followed by regeneration and next cycles. During the control loading stage all […]
Regenerated SA-Streptavidin biosensors loaded with biotin labelled RAD were used to perform referencing. Data was processed using ForteBio Analysis 7.1 software and IC50 was calculated using GraphPad. The results are the average of 4 repeats and error shown as SEM. […]

The target of a further series is T4, CK2α/CK2β interaction (Homo sapiens, UniProt P68400).
T4 construct: CK2α_WT was used (residues 2-329); His6 (N, cleaved yes); made in house; host or cells: Escherichia coli BL21(DE3)
T4 sequence (P68400 2-329): T1 sequence (P68400 2-329 R21S/K74A/K75A/K76A) with S20R, A73K, A74K, A75K
Put plainly: ITC competition assay: CK2β binding to CK2α alone and in the presence of peptide. The following applies: 25°C, 100 μM peptide, preliminary assay. As for the experimental part: as §11
1.4.3.2. Competition assay […]
concentrated to 4-6 μM. CK2β (9.3 mg/mL, 20 mM Tris pH 8.5, 500 mM NaCl) was diluted in Tris buffer (200 mM, NaCl, 300 mM, 10% DMSO) and concentrated to 40 μM. In a typical experiment, […]
performed at 150 second intervals. The syringe was loaded with CK2β and rotated at 750 rpm. The same experiment was repeated in the presence of the peptide s: compounds at 1 mM in DMSO were added to the solutions of CK2α and CK2β (prepared as described above) to a final concentration of […]
binding model using Origin software. […]
(CK2β-RAD) 200s, baseline 120s (assay buffer), control loading 200s (RAD), baseline 150s (assay buffer), ligand binding (association) 400s (CK2α K74A and CAM7117) and ligand dissociation 600s (assay buffer), followed by regeneration and next cycles. […]
GraphPad. The results are the average of 4 repeats and error shown as SEM.
Figure S10- Sensorgrams of the BLI competition experiments to assess the ability of P2-C4 to […] the CK2α/CK2β-RAD complex. a) Concentration of peptide ranging from 10 to 0.025 μM and 0 μM. b) Concentration of peptide ranging from 10 to 5 nM and 0 nM.
(1 picture or pasted object on this page, not shown here)

The target of series [5] is T5, CK2α (Homo sapiens, UniProt P68400).
T5 construct: CK2α_WT was used (residues 2-329); His6 (N, cleaved yes); made in house; host or cells: Escherichia coli BL21(DE3)
T5 sequence (P68400 2-329): T1 sequence (P68400 2-329 R21S/K74A/K75A/K76A) with S20R, A73K, A74K, A75K
Nature of the series: ADP-Glo kinase assay, β-independent substrate peptide RRRADDSDDDD
The class given is biochemical. To be noted: 50 nM CK2α_WT, 25 μM ATP, 50 μM substrate, 25 °C, 120 min. The protocol: as §11, §12, §13, §14

Series [6] relates to U2OS cells. The format is cell-based, human. The protocol:
as §2, §3, §4, §5, §6, §7, §8, §9, §10

Method for U2OS and HCT116 cells: All cell lines used were supplied by AstraZeneca cell bank as mycoplasma free. U2OS bone
osteosarcoma and HCT116 colon carcinoma cells were maintained in RPMI -1640 (1x, Sigma Aldrich,
R0883) supplemented with 2 mM L-glutamine (Gibco, 25030-149) and fetal bovine serum (FBS, Gibco
Life Technologies, 10270-106) at a final concentration of 10%, hereafter known as growth medium. All
cells were grown at 37°C/5% CO2 in a humidified environment and all the assays were performed
using these culturing conditions.
HCT116 cells were seeded at 2000 cells per well into two flat-bottomed 384-well plates (PerkinElmer
CellCarrier Ultra) in 40 μL of growth medium. After 24 hours, the peptides dissolved in DMSO (10 mM)
were added to the cells (to final concentrations of 100, 75, 50, 32, 25, 16, 10, 7.7, 5, 3.2, 0 μM) using
HP Tecan dispenser and DMSO normalised to a final concentration of 1% (v/v). Cells were then
incubated in the presence of the compounds for 4 days and the rate of growth monitored with
IncuCyte Zoom (plate day 4). […]
inhibition was calculated relative to DMSO controls, normalised against day 0 and GI50 values were
calculated using Graphpad Prism. […]
minutes at room temperature, luminescence was read on a multimode plate reader (EnVision, […]
dead cells was measured. […]
calculated by subtracting the luminescent signal resulting from experimental cell death from total
luminescence death. […]

One may read the GI50 as the concentration giving 50% growth inhibition. Low readings indicate more potent growth inhibition, high ones less potent growth inhibition. By Kd is commonly meant a measure of binding affinity in units of concentration. As for `CC(=O)NCC(=O)N[C@H]1Cn2cc(nn2)-c2cc(C(=O)NCCCCCC(=O)NCCCCCC(=O)N[C@H](CCCNC(=N)N)C(=O)N[C@H](CCCNC(=N)N)C(=O)N[C@H](CCCNC(=N)N)C(N)=O)cc(c2)-c2cn(nn2)C[C@@H](C(=O)NCC(=O)NCC(N)=O)NC(=O)[C@H](Cc2c[nH]cn2)NC(=O)[C@H](Cc2c[nH]c3ccccc23)NC(=O)[C@H](CCCCN)NC(=O)[C@H](Cc2ccccc2)NC(=O)CNC(=O)[C@H](Cc2ccc(O)cc2)NC(=O)[C@H](CC(C)C)NC(=O)[C@H](CCCNC(=N)N)NC1=O` [CAM7117], the GI50 with U2OS cells [1] was 32000 ± 2000 nM; in the series on HCT116 cells, 76000 ± 4000 nM. In series [2], the “Nuclear localisation of CK2β after treatment” value is listed as “little or no fluorescence associated with the CK2β antibody was found in the nucleus”. Besides, on CK2α [3], binding was put at a Kd of 200 nM. The Induction of apoptosis result in the series on U2OS cells [4] is recorded as “induced apoptosis”.

On to `C#Cc1cc(C#C)cc(C(=O)NCCCCCC(=O)NCCCCCC(=O)N[C@H](CCCNC(=N)N)C(=O)N[C@H](CCCNC(=N)N)C(=O)N[C@H](CCCNC(=N)N)C(N)=O)c1` [F1C4], for which the “Biological effects in cancer cells” value in the series with U2OS and HCT116 cells is “No biological effects”.

As for `CC(=O)NCC(=O)N[C@H]1Cn2cc(nn2)-c2cc(C(=O)O)cc(c2)-c2cn(nn2)C[C@@H](C(=O)NCC(=O)NCC(N)=O)NC(=O)[C@H](Cc2c[nH]cn2)NC(=O)[C@H](Cc2c[nH]c3ccccc23)NC(=O)[C@H](CCCCN)NC(=O)[C@H](Cc2ccccc2)NC(=O)CNC(=O)[C@H](Cc2ccc(O)cc2)NC(=O)[C@H](CC(C)C)NC(=O)[C@H](CCCNC(=N)N)NC1=O` [P2-C4], the values for the IC50 on CK2α/β holoenzyme and on CK2α/CK2β-RAD complex were 206 ± 29 nM and 150 ± 19 nM, respectively. Besides, on CK2α [3] (ITC Kd, P2-C4 vs P2), the “Improvement in Kd of the constrained peptide compared to the linear variant P2” value was found to be 300 fold. On CK2α [3], this molecule yielded a Kd of 150 nM. Also, the “Binding of CK2β to CK2α in the presence of peptide” value at CK2α/CK2β interaction was “no binding of CK2β to CK2α was detected”. Further, the “Effect on phosphorylation of a β-independent substrate peptide (RRRADDSDDDD)” value at CK2α [5] is given as “did not affect the phosphorylation”.

On to “GXF2C4RLYGFKWHXF2C4GG (sidechain bridge or staple) [P2-F2C4, FITC-labelled analogue of CAM7117]”, for which the “Cellular uptake / cell permeability” value with U2OS cells [6] was “successfully internalised”.

Source of the values: PMC6530537, “Efficient development of stable and highly functionalised peptides targeting the CK2α/CK2β protein–protein interaction” (Chemical Science, 2019).
